The values that follow come from patent US20180028471A1, “CONTINUOUS LOCAL SLOW-RELEASE OF THERAPEUTICS FOR HEAD AND NECK PROBLEMS AND UPPER AERODIGESTIVE DISORDERS” (Board of Supervisors of Louisiana State University and …, priority 2016, published 2018).

One test deals with minimal residual disease. In words: Model of minimal residual disease (tumor formation, survival). Type of test: in vivo.
The test system of another test is mTOR pathway markers. In words: Phase 2 biomarker exploratory trial: mTOR pathway markers in tumors and PBMCs. Type of test: in vivo. Conditions: HNSCC patients. The text has this:
Criteria #1) Biomarker expression in normal tissue should be different from that in high risk tissue. In FIG. 2 we present an analysis of cancer (lanes 5, 6, 11, and 12) and non-cancer (patients with sleep apnea) (lanes1-4 and 7-10) patient samples. The cancer samples include tumors (T) and histologically tumor-free margins (M). […] Criteria #2) Biomarkers can be detected in small tissue specimens. In our studies we have successfully detected by western blots and even by IHC the various Akt/mTOR markers on samples often as small as 5 mm. Criteria #3) Biomarkers can be expressed in a quantity or pattern that can be correlated with the stage of carcinogenesis.

The test system of a further test is HNSCC cell lines. Nature of the test: Inhibition of cell proliferation in HNSCC cell lines. Type of test: cell-based. The text has this: While curcumin can be used to treat these cancers, other compounds that act on these pathways may also be useful in treating these cancers and it should be readily recognized that such compounds could also be delivered by including in the formulations described herein.

For test [1], the system named is normal fibroblast cell line CCL110. Nature of the test: Effects on normal fibroblast cell line CCL110 (proliferation). Type of test: cell-based. Conditions: normal fibroblast cell line CCL110, FIG. 1.
The subject of the next test is PCI15a cells. Nature of the test: Modulation of NFκB and Akt/mTOR pathways in PCI15a cells. Type of test: cell-based. Conditions: 10 μM.
In the next test the test system is SCC40 cells. Nature of the test: Modulation of NFκB and Akt/mTOR pathways in SCC40 cells. The note with it: 10 μM. Type of test: cell-based.
The test system of a further test is SCC066. Nature of the test: Modulation of NFκB and Akt/mTOR pathways in SCC066 cells. Type of test: cell-based. The note with it: 10 μM, 24 and 48 hours.
The subject of test [2] is normal fibroblast cell line CCL110. Nature of the test: Modulation of NFκB and Akt/mTOR pathways in CCL110 normal fibroblasts. Type of test: cell-based. Conditions: 10 μM, 24 and 48 hours.
The next test has as its system SCC40 xenografts. In words: pAkt and pS6 in SCC40 xenografts of treated mice. Conditions: mice with SCC40 xenografts, FIG. 3B. Type of test: in vivo.
A further test concerns tumor cells. In words: Chemoprevention model: pre-treatment before tumor cell injection, tumor volumes. Type of test: in vivo, Balb/c nu/nu mice. Conditions: 10 mg, pre-treated 4 days before tumor cell injection, about three weeks. The protocol: Balb/c nu/nu mice were randomized into treatment groups. […] Tumors were measured over approximately three weeks. […] ANOVA analysis. […] This also points to its role as a chemopreventive agent rather than a therapeutic agent.

Test [3] deals with TPA-induced tumor promotion on mouse skin. The note with it: topical application of 10 μmol twice weekly; cited from earlier work.
Another test deals with DMBA-induced oral tumors. The note with it: 10 μmol topically to cheek pouch 3 times/week for 24 weeks; cited from earlier work.
Test [4] relates to prostate cancer xenograft. The note with it: p.o. gavage 5 mg/day, 5 days/week for 4 weeks; cited from earlier work.

On to `CO[C@H]1C[C@@H]2CC[C@@H](C)[C@@](O)(O2)C(=O)C(=O)N2CCCC[C@H]2C(=O)O[C@H]([C@H](C)C[C@@H]2CC[C@@H](OC(=O)C(C)(CO)CO)[C@H](OC)C2)CC(=O)[C@H](C)/C=C(\C)[C@@H](O)[C@@H](OC)C(=O)[C@H](C)C[C@H](C)/C=C/C=C/C=C/1C` [CCI-779, temsirolimus], for which, in the test with minimal residual disease, the survival result is “improve survival” and the tumor formation result is “inhibit tumor formation”. For the same compound, in the test with mTOR pathway markers, the “mTOR pathway markers in tumors and PBMCs” value was “modulation of these markers”.

With `CO[C@H]1C[C@@H]2CC[C@@H](C)[C@@](O)(O2)C(=O)C(=O)N2CCCC[C@H]2C(=O)O[C@H]([C@H](C)C[C@@H]2CC[C@@H](OCCO)[C@H](OC)C2)CC(=O)[C@H](C)/C=C(\C)[C@@H](O)[C@@H](OC)C(=O)[C@H](C)C[C@H](C)/C=C/C=C/C=C/1C` [RAD001, everolimus, reference compound], the “sensitivity of a variety of cell lines” value with HNSCC cell lines is recorded as “wide range of sensitivity”.

Consider `COc1cc(/C=C/C(=O)CC(=O)/C=C/c2ccc(O)c(OC)c2)ccc1O` [curcumin], for which, in the test with HNSCC cell lines (all 10 HNSCC cell lines tested to date), the “growth inhibitory effects on all HNSCC cell lines tested” value was “growth inhibitory effects”. Further, the “cell proliferation at 10 μM” value with HNSCC cell lines (all HNSCC cell lines, 10 μM, FIG. 1) is reported as “inhibition of cell proliferation”. In the test with HNSCC cell lines (all three HNSCC cell lines, 48 hours), the “growth inhibitory effects at 48 hours” value is listed as “significant growth inhibitory effects”. Moreover, the “concentration giving consistent inhibition of cell proliferation” value with HNSCC cell lines (variety of HNSCC cell lines, in vitro, FIG. 1) is given as “less than 10 μM”. Also, in the test with HNSCC cell lines, the “sensitivity of a variety of cell lines” value is recorded as “consistently sensitive”. In addition, the “dose required to see effects” value in [1] lay in the range of 20 to 40 µM. Besides, the pNFκB result in the test on PCI15a cells (24 and 48 hours) is “no change”; in the test with SCC40 cells (after 48 hours), “down-regulation”. The pAkt entry in the test on PCI15a cells (48 hours) is recorded as “down-regulated”; in the test on SCC40 xenografts it was “significant decrease”. In addition, the “pS6 downstream of mTOR” value with PCI15a cells (48 hours) is listed as “down-regulated”. Also, the Akt/mTOR pathway result with SCC40 cells (24 and 48 hours) is on record as “no change”; in the test with SCC066, “did not show any modulation”. The “pNFκB or Akt/mTOR” value in test [2] is listed as “no decrease”. Further, the pS6 entry with SCC40 xenografts is on record as “significant decrease”. For the same compound, the “tumor volumes versus control (vehicle treated)” value in the test with tumor cells is recorded as “no significant difference”. Moreover, the “inhibition of the number of tumors per mouse” value in [3] is on record as 98%. Also, in the test with DMBA-induced oral tumors, the “reduction of the number of DMBA-induced oral tumors” value is recorded as about 40%. The “inhibition of growth of prostate cancer xenograft” value in [4] is given as about 50%.
